Reference: patent US20150306108A1, “COMPOSITIONS OF ALDH1A1 INHIBITORS AND METHODS OF USE IN TREATING CANCER” (Indiana University Research & Technology Corporation, priority 2014, published 2015)

Key:
IGROV1 cells [1] = assay: Spheroid formation under low attachment culture conditions; format: cell-based, human; conditions: 7 days
Protocol: Ovarian cancer cell lines or primary cells were seeded at a concentration of 25,000 cells/ml in Mammocult complete medium (StemCell Technologies) and ultra-low attachment plates (Corning, Corning, N.Y.). Spheroids were trypsinized every 7 days and re-plated to generate successive generations. To observe spheroid morphology, A2780, SKOV3, IGROV1, and primary cells were cultured in a rotating bioreactor (Synthecon, Houston, Tex.) until […] compact spheroids were visible (10-30 days). They were harvested, preserved with Histochoice MB Tissue Fixative (Amresco, Solon, Ohio) for 1 hour, and embedded in Immuno-bed resin (Polysciences, Warrington, Pa.). Two micron thick sections were cut on an ultramicrotome and stained with 0.1% methylene blue/0.15% basic fuchsin in 50% methanol.
(§1) Cell viability was measured by the trypan blue (ThermoScientific) exclusion test. Cell proliferation was quantified by the MTT assay. Spheroids were counted after centrifugation at 300×g for 5 minutes. All assays were performed in four replicates. Data are presented as means±SEM.

IGROV1 cells [2] = assay: Cell viability by trypan blue exclusion; format: cell-based, human; conditions: 7 days
Protocol: as §1

In the case of `CCOC(=O)CSc1nc2c(sc3ccccc32)c(=O)n1CCCN1CCCC1` [CM037, ethyl-2-((4-oxo-3-(3-(pryrrolidin-1-yl)propyl)-3,4-dihydrobenzo[4,5]thioeno[3,2-d]pyrimidin-2-yl)thio)acetate], the formation of spheres (IGROV1 cells [1]; 50 μM, low attachment) is reported as “completely inhibited”, the “concentration from which dose-dependent inhibition of spheroid formation starts” value (IGROV1 cells [1]; 1, 5, 10 and 50 μM) is reported as at least 1 µM and the “percentage of viable cells” value (IGROV1 cells [2]; 50 μM, trypan blue exclusion) is reported as “significantly decreased”. The “concentrations giving dose-dependent decrease in cell viability” value (IGROV1 cells [2]; 1, 5, 10 and 50 μM) was “greater than 10 μM”.
